Assay results taken from US10913983B2, “Sensitivity markers and uses for CDK7 inhibitors in breast cancers” (UNIVERSITY OF SOUTH CAROLINA, priority 2017, dated 2021).
Where two headings read alike, the source gives them in different places.

Tests used:
[1] = system: serum starved SKBR3 cells; assay: EGF stimulation; assay type: cell-based; details: 100 ng/ml EGF with 250 nM THZ1, 6 hours
Procedure: SKBR3 cells were seeded into duplicate 6-well plates and allowed to grow until 80% confluent. The cells were then washed with PBS and the media was replaced with serum-free media overnight. After serum starvation the cells were treated with 100 ng/ml EGF with or without 250 nM THZ1 for 6 hours then lysates were collected for both RNA and protein analysis.

[2] = system: breast cancer cell lines (TNBC, ER+HER2−, ER+HER2+ and ER−/HER2+); assay: Cell proliferation, 12-well plates, bright-field imaging; assay type: cell-based; details: 100 nM, seven days of treatment
Procedure: (§1) Cells were seeded in 12-well plates at densities ranging from 10000-30000 cells/well and after 24 hours cells were treated with 10, 40 and 100 nM THZ1 in triplicate. After 7 days the cells were imaged using Zeiss Axiovert 200 microscope using a 20× objective lens. Additionally, cells were plated in 96-well plates at a density of 2000 cells/well and after 24 hours treated with 0-10 μM THZ1. After 2 and 7 days the growth of the cells was measured by MTT assay.
The effects of different concentrations of THZ1 on breast cancer cell lines was examined. Cell lines included TNBC, ER+HER2−, ER+HER2+ and ER−/HER2+ and effects were studied over seven days of treatment.

[3] = system: panel of breast cancer cell lines; assay: Cell proliferation MTT assay, cell line panel; assay type: cell-based
Procedure: as §1
(§2) All results were presented as mean±standard deviation of 4-8 parallel assessments. Similar results were obtained from a minimum of two independent experiments. […] Densitometry was performed on duplicate immunoblots using ImageLab software (Biorad) and normalized to tubulin loading controls and then correlated with the THZ1 IC50 values of each cell line. Statistical analyses were performed using SPSS 18.0 (SPSS Inc). Bi-variant scatter graphs and Spearman rank analyses were performed to evaluate associations between protein levels, mRNA and response to inhibition. IC50 values were calculated for MTT assays using CompuSyn software.
To investigate the effect of CDK7 inhibition in a time and dose dependent manner, an extended panel of 11 breast cancer cell lines were screened for response to THZ1 after 2 and 7 days of treatment.

549 = details: fold change in gene expression, THZ1; cited from earlier work
[4] = system: PARP cleavage in MDA-MB-231, SKBR3 and JIMT-1 cells; assay: Immunoblotting for PARP cleavage; assay type: cell-based; details: 250 nM, 24 and 48 hours
Procedure: Cells were plated in 100 mm^2 petri dishes at a density of 1×10^6 cells/plate and allowed to grow for 3-4 days until the cells reached 80% confluency. Cells were treated with THZ1 or with vehicle control (DMSO) prior to lysing cells in RIPA buffer containing protease inhibitor cocktail and PMSF. Protein concentration was determined using BCA assay (Pierce). All lysates were prepared in biological duplicates. Protein (50 μg) was resolved on 4-20% Express-Plus PAGE gels in Tris-MOPS (SDS) running buffer (GenScript), transferred to PVDF membranes and incubated at 4° C. overnight with primary antibodies: CDK7 (sc-529, SantaCruz), ER (sc-543, SantaCruz), HER2 (#4290, Cell Signaling Technology), RNA-Pol II-S2P (C152000005, Diagenode), RNA-Pol II-S5P C152000007, RNA-Pol II-S7P (04-1570, Millipore) and RNA-Pol II (sc-900X, SantaCruz), CITED2 (MAB5005, R+D Systems), Tubulin (T-9026, Sigma), followed by anti-rabbit (#31460, ThermoFisher Scientific), anti-mouse (31430, ThermoFisher Scientific) or anti-rat (AP136P, Millipore) secondary antibodies. Bands were visualized with Western Lighting Plus ECL detection reagent (Perkin Elmer) using ChemiDoc Touch™ (BioRad). Images were analyzed and densitometry performed using ImageLab software (Biorad).

T47D = assay: Cell proliferation MTT assay; assay type: cell-based
Procedure: as §1, §2

ZR-75-1 = assay: Cell proliferation MTT assay; assay type: cell-based
Procedure: as §1, §2

SKBR3 = assay: Cell proliferation MTT assay; assay type: cell-based
Procedure: as §1, §2

HCC1954 = assay: Cell proliferation MTT assay; assay type: cell-based
Procedure: as §1, §2

MDA-MB-231 = assay: Cell proliferation MTT assay; assay type: cell-based
Procedure: as §1, §2

MDA-MB-453 = assay: Cell proliferation MTT assay; assay type: cell-based
Procedure: as §1, §2

BT549 = assay: Cell proliferation MTT assay; assay type: cell-based
Procedure: as §1, §2

MDA-MB-361 = assay: Cell proliferation MTT assay; assay type: cell-based
Procedure: as §1, §2

HCC1937 = assay: Cell proliferation MTT assay; assay type: cell-based
Procedure: as §1, §2

difference in sensitivity determined by IC50 ([3]; most sensitive cell line SKBR3 vs least sensitive cell line JIMT-1): 25 fold
IC50 ([3]; two-day treatment, read-out: IC50 values of most cell lines): 100 to 300 nM
IC50 (T47D; 2 days, read-out: 2 day IC50): 89 nM
IC50 (T47D; 7 days, read-out: 7 day IC50): 14 nM
IC50 (SKBR3; SKBR3, 2 days, read-out: 2 day IC50): 23 nM
IC50 (SKBR3; SKBR3, 7 days, read-out: 7 day IC50): 9 nM
IC50 (HCC1954; HCC1954, 2 days, read-out: 2 day IC50): 158 nM
IC50 (HCC1954; HCC1954, 7 days, read-out: 7 day IC50): 36 nM
IC50 (MDA-MB-231; MDA-MB-231, 2 days, read-out: 2 day IC50): 159 nM
IC50 (MDA-MB-231; MDA-MB-231, 7 days, read-out: 7 day IC50): 36 nM
IC50 (MDA-MB-453; MDA-MB-453, 2 days, read-out: 2 day IC50): 133 nM
IC50 (MDA-MB-453; MDA-MB-453, 7 days, read-out: 7 day IC50): 12 nM
IC50 (BT549; BT549, 2 days, read-out: 2 day IC50): 17 nM
IC50 (BT549; BT549, 7 days, read-out: 7 day IC50): 8 nM
IC50 (MDA-MB-361; MDA-MB-361, 2 days, read-out: 2 day IC50): 133 nM
IC50 (MDA-MB-361; MDA-MB-361, 7 days, read-out: 7 day IC50): 27 nM
IC50 (HCC1937; HCC1937, 2 days, read-out: 2 day IC50): 94 nM
IC50 (HCC1937; HCC1937, 7 days, read-out: 7 day IC50): 24 nM
SMILES: CN(C)C/C=C/C(=O)Nc1ccc(C(=O)Nc2cccc(Nc3ncc(Cl)c(-c4c[nH]c5ccccc45)n3)c2)cc1 [THZ1]
EGF induction of CITED2 expression (mRNA) [1]: prevented
EGF induction of mRNA expression of EGFR, MYC, CDKN1B, PLK2 and FOXC1 [1]: prevented
EGF-induced increase of CITED2 protein [1]: prevented
growth inhibition [2]: inhibited the growth of all tested cell lines regardless of subtype
BAMBI 549 FC 549: −2.97
CDKN1B 549 FC 549: −3.06
CITED2 549 FC 549: −4.12
CYR61 549 FC 549: −2.96
DKK1 549 FC 549: −5.01
E2F8 549 FC 549: −3.09
ELF3 549 FC 549: −1.11
FADD 549 FC 549: −3.1
FBXO5 549 FC 549: −4.09
MARS2 549 FC 549: −3.73
MOCS3 549 FC 549: −4.2
MYC 549 FC 549: −3.06
NEDD9 549 FC 549: −1.53
PHLDA1 549 FC 549: −2.72
PIM3 549 FC 549: −2.73
PLK2 549 FC 549: −3.7
TRIB1 549 FC 549: −4.07
WEE1 549 FC 549: −2.95
ZNF217 549 FC 549: −3.66
ZNF627 549 FC 549: −3.39
PARP cleavage [4]: induced PARP cleavage only in the SKBR3 cells
IC50 (ZR-75-1; ZR-75-1, 2 days, read-out: 2 day IC50): 286 nM
IC50 (ZR-75-1; ZR-75-1, 7 days, read-out: 7 day IC50): 50 nM
